In brackets after ≈: the same amount, converted by molar mass. Several values for one entry are separate records, joined by “and”; a condition that tells them apart may be missing. Identical values can stand only once. Like-named read-outs stand apart in the source and are kept apart here. Blank lines part the entries; values can stand above or below the molecule they belong to. Starred links: 1 amine or outer side, 2 acyl side, 3 side chain; linkers in the order of their positions; H or OH if unused. Non-standard residues stand in square brackets, D forms with d. Residues, ends and D or L forms follow the SMILES beside them. *: point of attachment. N(CH2CH2O-4'-Tpy)Gly = O=C(O)CNCCOc1cc(-c2ccccn2)nc(-c2ccccn2)c1; Acetyl(2-(piperazin-1-yl)) = O=C(CN1CCNCC1)*; X2 = O=C(CN(Cc1ccc2cccc(O)c2n1)[*:1])[*:2]; X4 = O=C(CN1CCCN([*:1])CC1)[*:2]; Nspe = C[C@H](NCC(=O)O)c1ccccc1; X1 = O=C(CN1CCN([*:1])CC1)[*:2]; X5 = NC(=O)CN1CCN(*)CC1; X3 = O=C(CN1CCCNCC1)*
Key:
[1] = General method for water solubility test (gradual addition of water to 1 mg peptoid until clear); assay type: physicochemical
Experimental: 1 mg peptoid was placed in an Eppendorf container and water was added gradually (e.g., […] per addition) until a clear solution was obtained. The solubility test was repeated three times and average values are presented. The limit of the test was typically 2.0×10^2 mg/liter (i.e., 1 mg per 5 ml).
Water solubility tests were carried out by a gradual addition of 5 μl distilled water to 1 mg peptoid until a clear solution was obtained. This assay was repeated three times and results were averaged.

[2] = Circular dichroism (CD) spectra of peptoids in water (temperature and concentration dependence); assay type: physicochemical; conditions: for Aggregation in water from concentration dependence of CD spectra: 40 to 180 μM
Experimental: Circular dichroism (CD) measurements were performed using a J-810-150S circular dichroism spectropolarimeter (Jasco). Spectra were obtained in a 1 mm path-length fused quartz cell. Prior to taking measurements, 5 mM stock oligomer solution was constituted in 100% water. The appropriate dilutions were made immediately before the measurements. Eight scans were taken for each sample at a scan rate of 1 nm/second at 1 nm increments. Data are expressed in terms of per-residue molar ellipticity (degrees*cm^2/dmol) calculated per mole of amide groups present.
(§1) In order to assess whether the dissolved peptoids form aggregates, fluorescence spectra were determined for P18 and P21 (which comprise Ns1npe) dissolved in water. Aggregation of peptoids with Ns1npe groups has been reported to be associated with an excimer band at 392 nm [Fuller et al., Org. Lett. 2013, 15:5118-5121]. In addition, CD spectra of P21 were determined at various concentrations ranging from 40 to 180 μM in water.
Similarly, CD spectra of P2, P5 and P8 (which comprise Nspe rather than Ns1npe as in P18 and P21) were determined in order to assess whether the dissolved peptoids form aggregates in water.

[3] = Selectivity towards Cu^2+ by UV-visible absorption spectra (metal ion mixture vs Cu^2+-complex); assay type: binding; conditions: water; 1 equivalent peptoid, mixture of Cu^2+, Co^2+, Zn^2+, Fe^2+, Mn^2+ and Ni^2+
Experimental: UV-visible spectrometry measurements were performed using a Cary™ 60 UV-Vis spectrophotometer (Agilent) with Czerny-Turner monochromator. In a typical UV-visible experiment, 10 μl of a peptoid solution (5 mM) was diluted in 3 ml H2O (to obtain a 17 μM concentration) and the UV-visible spectrum was measured. Afterwards 1 equivalent of Cu^2+ (10 μl, 5 mM) or solution containing mixtures of metal ions (1 equivalent Cu^2+, Co^2+, Zn^2+, Mn^2+, Ni^2+ and Fe^3+, 5 mM, 10 μl) was added and the spectrum was measured again.
In order to evaluate the selectivity of P33 and P34 towards Cu^2+, 1 equivalent of each peptoid in water was added to 1 equivalent of a mixture solution containing the metal ions Cu^2+, Co^2+, Zn^2+, Fe^2+, Mn^2+ and Ni^2+, and UV-visible absorption spectra were recorded and compared to UV-visible absorption of Cu^2+-complexes of the peptoids. It has been previously shown that comparing UV-visible absorption spectra is a highly reliable tool to assess the selectivity of the peptoid chelators.

[4] = Fluorescence emission spectra in water (excimer band, aggregation); assay type: physicochemical; conditions: 40 μM
Experimental: as §1

[5] = literature report (Baskin & Maayan 2016); cited from earlier work

solubility [1]: 176 mg/mL (≈ 142 mM)
Excimer band near 392 nm (aggregation) [4]: no excimer band was observed
Aggregation in water from concentration dependence of CD spectra [2]: some concentration-dependent aggregation
Structure (SMILES): C[C@@H](c1cccc2ccccc12)N(CC(N)=O)C(=O)CN(C(=O)CN(C(=O)CN(C(=O)CN1CCN(C(=O)CN2CCN(C(=O)CN3CCNCC3)CC2)CC1)[C@@H](C)c1cccc2ccccc12)[C@@H](C)c1cccc2ccccc12)[C@@H](C)c1cccc2ccccc12 [Peptoid P21, (Ns1npe)4-(Npz)3]

solubility [1]: < 0.2 mg/mL
Structure (SMILES): C[C@H](NCC(=O)N(CC(=O)N(CC(=O)N(CC(=O)N(CCOc1cc(-c2ccccn2)nc(-c2ccccn2)c1)CC(=O)N(CC(N)=O)[C@@H](C)c1ccccc1)[C@@H](C)c1ccccc1)[C@@H](C)c1ccccc1)Cc1ccc2cccc(O)c2n1)c1ccccc1 [Peptoid P32, reference compound] (H-[Nspe][X2][Nspe][Nspe][N(CH2CH2O-4'-Tpy)Gly][Nspe]-NH2; N-terminus assumed)
Selective chelation of Cu^2+ (reported) [5]: selective peptoid chelator for Cu^2+

Water solubility relative to that of P2 [1]: over 50 times
solubility [1]: 58 mg/mL (≈ 46.9 mM)
Water solubility relative to that of P2 at pH 10.5 ([1]; pH 10.5): 30 times
Aggregation in water from concentration dependence of CD spectra [2]: no aggregation
Structure (SMILES): C[C@@H](c1ccccc1)N(CC(N)=O)C(=O)CN(C(=O)CN(C(=O)CN(C(=O)CN(C(=O)CN(C(=O)CN1CCN(C(=O)CN2CCNCC2)CC1)[C@@H](C)c1ccccc1)[C@@H](C)c1ccccc1)[C@@H](C)c1ccccc1)[C@@H](C)c1ccccc1)[C@@H](C)c1ccccc1 [Peptoid P5, (Nspe)6-(Npz)2] ({Acetyl(2-(piperazin-1-yl))}-[X1][Nspe][Nspe][Nspe][Nspe][Nspe][Nspe]-NH2)

Further lines, the molecule ahead of its results:

Structure (SMILES): C[C@@H](c1ccccc1)N(CC(N)=O)C(=O)CN(C(=O)CN(C(=O)CN(C(=O)CN(C(=O)CN(C(=O)CN1CCCN(C(=O)CN2CCCNCC2)CC1)[C@@H](C)c1ccccc1)[C@@H](C)c1ccccc1)[C@@H](C)c1ccccc1)[C@@H](C)c1ccccc1)[C@@H](C)c1ccccc1 [Peptoid P8, (Nspe)6-(Nhpz)2] (X3-[X4][Nspe][Nspe][Nspe][Nspe][Nspe][Nspe]-NH2)
solubility [1]: 510 mg/mL (≈ 403 mM)
Aggregation in water from concentration dependence of CD spectra [2]: no aggregation

Structure (SMILES): C[C@@H](c1ccccc1)N(CC(N)=O)C(=O)CN(CCOc1cc(-c2ccccn2)nc(-c2ccccn2)c1)C(=O)CN(C(=O)CN(C(=O)CN(Cc1ccc2cccc(O)c2n1)C(=O)CN(C(=O)CN1CCNCC1)[C@@H](C)c1ccccc1)[C@@H](C)c1ccccc1)[C@@H](C)c1ccccc1 [Peptoid P33, Nspe-Ntrp-(Nspe)2-Nhq-Nspe-Npz] ({Acetyl(2-(piperazin-1-yl))}-[Nspe][X2][Nspe][Nspe][N(CH2CH2O-4'-Tpy)Gly][Nspe]-NH2; N-terminus assumed)
Selective binding to Cu^2+ [3]: does not selectively bind to Cu^2+
solubility [1]: 244 mg/mL (≈ 183 mM)

Structure (SMILES): C[C@@H](c1ccccc1)N(CC(N)=O)C(=O)CN(C(=O)CN(C(=O)CN(C(=O)CN(C(=O)CN(C(=O)CN1CCNCC1)[C@@H](C)c1ccccc1)[C@@H](C)c1ccccc1)[C@@H](C)c1ccccc1)[C@@H](C)c1ccccc1)[C@@H](C)c1ccccc1 [Peptoid P2, (Nspe)6-Npz] ({Acetyl(2-(piperazin-1-yl))}-[Nspe][Nspe][Nspe][Nspe][Nspe][Nspe]-NH2)
solubility [1]: ~900 µM and 1000 µg/mL
solubility ([1]; pH 4.5): 1.66 mg/mL (≈ 1.49 mM)
solubility ([1]; pH 7.5): 1.28 mg/mL (≈ 1.15 mM)
solubility ([1]; pH 10.5): < 0.2 mg/mL
Change of CD spectrum (helical structure) in water with temperature ([2]; 0° C. to 90° C.): does not change significantly
Aggregation in water from concentration dependence of CD spectra [2]: no aggregation

Structure (SMILES): C[C@H](NCC(=O)N(CC(=O)N(CC(=O)N(CC(=O)N(CCOc1cc(-c2ccccn2)nc(-c2ccccn2)c1)CC(=O)N(CC(=O)N1CCN(CC(N)=O)CC1)[C@@H](C)c1ccccc1)[C@@H](C)c1ccccc1)[C@@H](C)c1ccccc1)Cc1ccc2cccc(O)c2n1)c1ccccc1 [Peptoid P34, Npz-Nspe-Ntrp-(Nspe)2-Nhq-Nspe] (H-[Nspe][X2][Nspe][Nspe][N(CH2CH2O-4'-Tpy)Gly][Nspe]-X5; N-terminus assumed)
Selective binding to Cu^2+ [3]: selectively binds to Cu^2+
solubility [1]: 8.3 mg/mL (≈ 6.22 mM)

Structure (SMILES): C[C@@H](c1cccc2ccccc12)N(CC(N)=O)C(=O)CN(C(=O)CN(C(=O)CN(C(=O)CN1CCN(C(=O)CN2CCNCC2)CC1)[C@@H](C)c1cccc2ccccc12)[C@@H](C)c1cccc2ccccc12)[C@@H](C)c1cccc2ccccc12 [Peptoid P18, (Ns1npe)4-(Npz)2]
solubility [1]: 13.3 mg/mL (≈ 11.9 mM)
Excimer band near 392 nm (aggregation) [4]: no excimer band was observed

Structure (SMILES): C[C@@H](c1ccccc1)N(CC(N)=O)C(=O)CN(C(=O)CN(C(=O)CN(C(=O)CN(C(=O)CN(C(=O)CN1CCN(C(=O)CN2CCN(C(=O)CN3CCNCC3)CC2)CC1)[C@@H](C)c1ccccc1)[C@@H](C)c1ccccc1)[C@@H](C)c1ccccc1)[C@@H](C)c1ccccc1)[C@@H](C)c1ccccc1 [Peptoid P6, (Nspe)6-(Npz)3] ({Acetyl(2-(piperazin-1-yl))}-[X1][X1][Nspe][Nspe][Nspe][Nspe][Nspe][Nspe]-NH2)
Water solubility at pH 10.5 (in words) ([1]; pH 10.5): highly soluble
Water solubility relative to that of P2 at pH 10.5 ([1]; pH 10.5): 106 times
solubility ([1]; water, average of three tests, limit of test 2.0×10^2 mg/liter, read-out: Water solubility): 88.6 mg/mL (≈ 65 mM)
